Reference: patent US6326516A, “Acetylenic β-sulfonamido and phosphinic acid amide hydroxamic acid TACE inhibitors” (American Cyanamid Company, priority 2000, dated 2001)
Where two headings read alike, the source gives them in different places.

What was measured:
MMP-9 = MMP-9 (Homo sapiens, UniProt P14780); assay: MMP-9 inhibition (thiopeptide or fluorescent peptide substrate); format: biochemical
Procedure: (§1) The enzyme activity is measured by the rate of the color increase. The thiopeptide substrate is made up fresh as a 20 mM stock in 100% DMSO and the DTNB is dissolved in 100% DMSO as a 100 mM stock and stored in the dark at room temperature. Both the substrate and DTNB are diluted together to 1 mM with substrate buffer (50 mM HEPES pH 7.5, 5 mM CaCl2) before use. The stock of enzyme is diluted with buffer (50 mM HEPES, pH 7.5, 5 mM CaCl2, 0.02% Brij) to the desired final concentration. The buffer, enzyme, vehicle or inhibitor, and DTNB/substrate are added in this order to a 96 well plate (total reaction volume of 200 μl) and the increase in color is monitored spectrophotometrically for 5 minutes at 405 nm on a plate reader and the increase in color over time is plotted as a linear line.
(§2) Alternatively, a fluorescent peptide substrate is used. In this test procedure, the peptide substrate contains a fluorescent group and a quenching group. Upon cleavage of the substrate by an MMP, the fluorescence that is generated is quantitated on the fluorescence plate reader. The assay is run in HCBC assay buffer (50 mM HEPES, pH 7.0, 5 mM Ca^+2, 0.02% Brij, 0.5% Cysteine), with human recombinant MMP-1, MMP-9, or MMP-13. The substrate is dissolved in methanol and stored frozen in 1 mM aliquots. For the assay, substrate and enzymes are diluted in HCBC buffer to the desired concentrations. Compounds are added to the 96 well plate containing enzyme and the reaction is started by the addition of substrate. The reaction is read (excitation 340 nm, emission 444 nm) for 10 min. and the increase in fluorescence over time is plotted as a linear line.
(§3) For either the thiopeptide or fluorescent peptide test procedures, the slope of the line is calculated and represents the reaction rate. The linearity of the reaction rate is confirmed (r^2 >0.85). The mean (x±sem) of the control rate is calculated and compared for statistical significance (p<0.05) with drug-treated rates using Dunnett's multiple comparison test. Dose-response relationships can be generated using multiple doses of drug and IC50 values with 95% CI are estimated using linear regression.

THP-1 cells = assay: Human Monocytic THP-1 Cell Differentiation Assay for Soluble Proteins (THP-1 Soluble Protein Assay); format: cell-based
Procedure: THP-1 cells (from ATCC) are a human monocytic cell line which were obtained from the peripheral blood of a person with acute monocytic leukemia. They can be grown in culture and differentiated into macrophage like cells by stimulation with mitogens.
For the assay, THP-1 cells are seeded from an ATCC stock which was previously grown and frozen back at 5×10^6/ml/vial. One vial is seeded into a T25-flask with 16 mls of RPMI-1640 with glutamax (Gibco) media containing 10% fetal bovine serum, 100 units/ml penicillin, 100 μg/ml streptomycin, and 5×10^-5 M 2-mercapto-ethanol (THP-1 media). Each vial of cells are cultured for about two weeks prior to being used for an assay and then are used for only 4 to 6 weeks to screen compounds. Cells are subcultured on Mondays and Thursdays to a concentration of 1×10^5/ml.
To perform an assay, the THP-1 cells are co-incubated in a 24 well plate with […] of a 24 mg/ml stock of Lipopolysacharide (LPS) (Calbiochem Lot# B13189) at 37° C. in 5% CO2 at a concentration of 1.091×10^6 cells/ml (1.1 ml/well) for a total of 24 hours. At the same time, […] of drug, vehicle or THP-1 media is plated in appropriate wells to give a final volume of 1.2 ml/well. Standard and test compounds are dissolved in DMSO at a concentration of 36 mM and diluted from here to the appropriate concentrations in THP-1 media and added to the wells at the beginning of the incubation period to give final concentrations of […], 300 nM, and 100 nM. Cell exposure to DMSO was limited to 0.1% final concentration. Positive control wells were included in the experiment which had mitogen added but no drug. Vehicle control wells were included as well, which were identical to the positive control wells, except that DMSO was added to give a final concentration of 0.083%. Negative control wells were included in the experiment which had vehicle but no mitogen or drug added to the cells. Compounds can be evaluated for their effect on basal (non-stimulated) shedding of the receptors by replacing the LPS with […] of THP-1 media. Plates are placed into an incubator set at 5% CO2 and at 37° C. After 4 hours of incubation, […] of tissue culture supernatant (TCS) is removed for use in an TNF-α ELISA. Following 24 hours of incubation, […] of TCS is removed and used for analysis in TNF-R p75/80, TNF-R p55/60 and IL-8 ELISAs.
In addition, at the 24 hours timepoint, and the cells for each treatment group are collected by resuspension in 500 μl/well of THP-1 media and transferred into a FACS tube. Two ml/tube of a 0.5 mg/ml stock of propidium iodide (PI) (Boerhinger Mannheim cat. # 1348639) is added. The samples are run on a Becton Dickinson FaxCaliber FLOW cytometry machine and the amount of dye taken up by each cell is measured in the high red wavelength (FL3). Only cells with compromised membranes (dead or dying) can take up PI. The percent of live cells is calculated by the number of cells not stained with PI, divided by the total number of cells in the sample. The viability values calculated for the drug treated groups were compared to the viability value calculated for the vehicle treated mitogen stimulated group ("vehicle positive control") to determine the "percent change from control". This "percent change from control" value is an indicator of drug toxicity.
The quantity of soluble TNF-α, TNF-R p75/80 and TNF-R p55/60 and IL-8 in the TCS of the THP-1 cell cultures are obtained with commercially available ELISAs from R&D Systems, by extrapolation from a standard curve generated with kit standards. The number of cells that either take up or exclude PI are measured by the FLOW cytometry machine and visualized by histograms using commercially available Cytologic software for each treatment group including all controls. […]

MMP-1 = target: T1, MMP-1 (Homo sapiens, UniProt P03956); assay: MMP-1 inhibition (thiopeptide or fluorescent peptide substrate); format: biochemical
T1 sequence (P03956 100-469): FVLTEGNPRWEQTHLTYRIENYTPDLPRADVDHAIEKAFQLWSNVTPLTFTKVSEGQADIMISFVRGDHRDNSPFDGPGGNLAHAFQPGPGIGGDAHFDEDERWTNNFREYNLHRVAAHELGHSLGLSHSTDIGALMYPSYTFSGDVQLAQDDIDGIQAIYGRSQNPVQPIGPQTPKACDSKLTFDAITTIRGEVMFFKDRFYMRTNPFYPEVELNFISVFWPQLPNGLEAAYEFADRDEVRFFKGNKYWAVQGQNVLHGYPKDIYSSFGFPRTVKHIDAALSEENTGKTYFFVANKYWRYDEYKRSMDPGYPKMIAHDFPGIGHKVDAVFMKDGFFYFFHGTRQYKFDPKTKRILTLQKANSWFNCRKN
Procedure: as §1, §2, §3

[1] = target: TNF-α converting enzyme (TACE) (Homo sapiens, UniProt P78536); assay: TACE inhibition (fluorescent peptidyl substrate); format: biochemical
TNF-α converting enzyme (TACE), sequence (P78536 215-824): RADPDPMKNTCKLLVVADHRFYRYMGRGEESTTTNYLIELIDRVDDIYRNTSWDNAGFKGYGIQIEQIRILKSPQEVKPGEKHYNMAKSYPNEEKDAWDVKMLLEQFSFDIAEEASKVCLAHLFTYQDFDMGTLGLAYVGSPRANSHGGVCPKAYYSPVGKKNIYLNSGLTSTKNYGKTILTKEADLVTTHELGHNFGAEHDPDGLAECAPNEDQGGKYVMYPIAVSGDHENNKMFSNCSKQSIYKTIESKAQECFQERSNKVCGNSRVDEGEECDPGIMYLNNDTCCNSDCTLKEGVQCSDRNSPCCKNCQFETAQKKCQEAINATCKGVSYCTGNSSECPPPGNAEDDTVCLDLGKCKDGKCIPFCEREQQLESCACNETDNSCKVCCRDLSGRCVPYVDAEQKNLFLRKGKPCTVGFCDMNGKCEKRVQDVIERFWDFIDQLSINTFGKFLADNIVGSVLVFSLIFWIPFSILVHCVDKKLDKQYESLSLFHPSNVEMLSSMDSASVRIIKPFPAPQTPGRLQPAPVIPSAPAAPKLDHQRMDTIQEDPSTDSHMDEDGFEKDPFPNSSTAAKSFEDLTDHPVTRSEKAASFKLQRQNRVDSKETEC
Procedure: Using 96-well black microtiter plates, each well receives a solution composed of 10 μL TACE (fmal concentration 1 μg/mL), 70 μL Tris buffer, pH 7.4 containing 10% glycerol (final concentration 10 mM), and 10 μL of test compound solution in DMSO (final concentration 1 μM, DMSO concentration <1%) and incubated for 10 minutes at room temperature. The reaction is initiated by addition of a fluorescent peptidyl substrate (final concentration 100 μM) to each well and then shaking on a shaker for 5 sec.
The reaction is read (excitation 340 nm, emission 420 nm) for 10 min. and the increase in fluorescence over time is plotted as a linear line. The slope of the line is calculated and represents the reaction rate.
as §3, with “The” for “For either the thiopeptide or fluorescent peptide test procedures, the slope of the line is calculated and represents the reaction rate. The”, “generate” for “generated”

MMP-13 = MMP-13 (Homo sapiens, UniProt P45452); assay: MMP-13 inhibition (thiopeptide or fluorescent peptide substrate); format: biochemical
Procedure: as §1, §2, §3

MMP-9, sequence (P14780 94-707): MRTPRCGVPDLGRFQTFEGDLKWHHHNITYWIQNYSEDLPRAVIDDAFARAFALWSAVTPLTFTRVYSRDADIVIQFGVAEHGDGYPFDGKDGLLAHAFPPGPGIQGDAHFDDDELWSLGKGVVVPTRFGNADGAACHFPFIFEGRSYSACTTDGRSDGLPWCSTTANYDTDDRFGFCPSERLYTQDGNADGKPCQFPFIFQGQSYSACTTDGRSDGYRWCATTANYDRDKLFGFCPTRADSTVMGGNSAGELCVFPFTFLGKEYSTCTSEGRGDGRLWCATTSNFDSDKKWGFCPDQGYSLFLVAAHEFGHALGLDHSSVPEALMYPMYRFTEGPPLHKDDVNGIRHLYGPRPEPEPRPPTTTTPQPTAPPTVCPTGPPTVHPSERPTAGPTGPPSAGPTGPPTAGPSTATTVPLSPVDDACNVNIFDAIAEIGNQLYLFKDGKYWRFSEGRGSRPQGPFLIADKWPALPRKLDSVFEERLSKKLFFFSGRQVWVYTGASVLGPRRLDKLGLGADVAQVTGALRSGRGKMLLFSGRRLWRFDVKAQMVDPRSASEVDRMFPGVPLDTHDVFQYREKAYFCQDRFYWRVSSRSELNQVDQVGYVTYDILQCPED

IC50 (MMP-9; bounds given in uM) | IC50 (MMP-1; bounds given in uM) | IC50 [1] | IC50 (MMP-13) | IC50 (MMP-9) | IC50 (MMP-1) | IC50 (MMP-13; bounds given in uM) | Compound | inhibition at 3 µM (THP-1 cells)
~10 µM | > 10 µM | 36 nM | 1.74 µM | – | – | – | CC#CCOc1ccc(S(=O)(=O)N[C@H]2CCCC[C@H]2C(=O)NO)cc1 (relative stereo) [Example 32, (Cis)-2-[{[4-(2-butynyloxy)phenyl]sulfonyl}amino)-N-hydroxycyclohexanecarboxamide] | 29%
– | – | 53 nM | 1.82 µM | 1.32 µM | 4.23 µM | – | CC#CCOc1ccc(S(=O)(=O)N(C)[C@H]2CCCC[C@H]2C(=O)NO)cc1 (relative stereo) [Example 36, (Cis)-2-[{[4-(2-butynyloxy)phenyl]sulfonyl}(methyl)amino]-N-hydroxycyclohexanecarboxamide] | 23%
> 10 µM | > 10 µM | 28 nM | – | – | – | > 10 µM | CC#CCOc1ccc(S(=O)(=O)N(C)[C@@H]2CCCC[C@H]2C(=O)NO)cc1 [Example 17, (1R,2R)-2-[{[4-(2-Butynyloxy)phenyl]sulfonyl}(methyl)amino]-N-hydroxycyclohexanecarboxamide] | 14%
> 10 µM | > 10 µM | 61 nM | – | – | – | > 10 µM | CC#CCOc1ccc(S(=O)(=O)N[C@@H]2CCCC[C@H]2C(=O)NO)cc1 [Example 18, (1R,2R)-2-({[4-(2-Butynyloxy)phenyl]sulfonyl}amino)-N-hydroxycyclohexanecarboxamide] | 1%
– | – | 145 nM | – | – | – | – | CC#CCOc1ccc(S(=O)(=O)NCCC(=O)NO)cc1 [Example 21, 3-({[4-(2-Butynyloxy)phenyl]sulfonyl}amino)-N-hydroxypropanamide] | 0%
– | – | 73 nM | – | – | – | – | CC#CCOc1ccc(S(=O)(=O)N(C)CCC(=O)NO)cc1 [Example 24, 3-({[4-(2-Butynyloxy)phenyl]sulfonyl}(methyl)amino)-N-hydroxypropanamide] | 9%
– | > 1 µM | 15 nM | 0.672 µM | 5.06 µM | – | – | CC#CCOc1ccc(S(=O)(=O)N[C@H]2CCC[C@H]2C(=O)NO)cc1 [Example 26] | 23%
– | – | 14 nM | 0.308 µM | 0.383 µM | 2.77 µM | – | CC#CCOc1ccc(S(=O)(=O)N(C)[C@H]2CCC[C@H]2C(=O)NO)cc1 [Example 30, (1R,2S)-2-[{[4-(2-Butynyloxy)phenyl]sulfonyl}(methyl)amino]N-hydroxycyclopentanecarboxamide] | 65%
> 10 µM | > 10 µM | 30 nM | – | – | – | ~10 µM | CC#CCOc1ccc(S(=O)(=O)NC2C3CCC(C3)C2C(=O)NO)cc1 [Example 38, (1R,2R,3S,4R)-(Cis)-3-({[4-(2-butynyloxy)phenyl]sulfonyl}amino)-N-hydroxybicyclo[2.2.1]heptane-2-carboxamide] | 9%
– | ~10 µM | 62 nM | 1.14 µM | – | – | – | CC#CCOc1ccc(S(=O)(=O)N(C)C2C3CCC(C3)C2C(=O)NO)cc1 [Example 42, (1R,2R,3S,4R)-(Cis)-3-({[4-(2-butynyloxy)phenyl]sulfonyl}(methyl)amino)-N-hydroxybicyclo[2.2.1]heptane-2-carboxamide] | 77%
